Measured values: patent US10822450B2, “Poly(glycerol sebacate)-interleukin inhibitor copolymers and methods of making and use” (THE SECANT GROUP, LLC, priority 2017, dated 2020)

Format: physicochemical
Conditions: pH 11
Description: A PGS-aspirin copolymer from Example 6 was thermoset by heating to 130° C. at a pressure of 10 Torr for 72 hours. Three thin cylindrical disks, each having a diameter of 10 mm, were punched out of the resultant thin film, which was about 1 mm thick.
Each disk was placed in 10 mL of 0.09 M phosphate-buffered saline (PBS) at a pH of 11 and a temperature of 37° C. for four weeks. At 1-week intervals, the solution was removed and tested for salicylic acid content by UV analysis at a wavelength of 303 nm and for pH. Each sample was rinsed three times with distilled water and vacuum dried prior to being placed in fresh PBS.

- disk integrity during degradation: began to fall apart
Substance: PGS-aspirin copolymer [Example 8]
